According to patent US7544666B2, “NAP derivatives” (Industrial Technology Research Institute, priority 2005, dated 2009):
Where a SMILES comes first, the peptide text is derived from it. Bridges are numbered along the chain shown (N, C = ends).

Tests used:
[1] = Stability in Hanks' balanced salt solution (HBSS); format: physicochemical; conditions: 37° C., relative to initial conc. in HBSS = 100.00
Method: (§1) The stability of the NAP derivatives prepared by EXAMPLE 1 was measured with the system of human colon cancer cell, Caco-2 cell. Caco-2 cells (1×10^5 cells) were first seeded into a polycarbonate film on the upper layer of a 12-well Transwell and incubated for 18 to 26 days at 37° C. The TEER of the Caco-2 cell monolayer was measured over 350 Ω×cm^2. The stability of the NAP derivatives in the Hanks' balanced salt solutions (HBSS) was measured by the concentration changes of NAP and the NAP derivatives incubated in the HBSS at 37° C. for 4 hours. The stability of the NAP derivatives in the Caco-2 cell system was measured by the procedure described below. NAP and the NAP derivatives in the HBSS were added into the upper layer of the Caco-2 cell-seeded Transwell. After 4-hour incubation, the concentration of NAP and the NAP derivatives in the upper and lower layers was measured and analyzed in comparison with the initial concentration (500 μM) by reverse HPLC at 210 nm.

Caco-2 cell = test: Stability in the Caco-2 cell system; format: in vitro ADME, human; conditions: 4-hour incubation in Caco-2 Transwell; relative to initial conc. = 100.00 (500 μM)
Method: as §1

Caco-2 cell monolayer = test: Permeation to Caco-2 cell monolayer; format: in vitro ADME, human; parameters: unit not given here; conditions: 4-hour incubation, initial concentration 500 μM in upper layer
Method: The permeation of NAP and the NAP derivatives was examined using the Caco-2 cell system. Caco-2 cells (1×10^5 cells) were seeded into the polycarbonate film on the upper layer of a 12-well Transwell and incubated at 37° C. for 18 to 26 days. The TEER of the Caco cell monolayer was measured over 350 Ω×cm^2. NAP and the NAP derivatives in the HBSS were added into the upper layer of the Caco-2 cell-seeded Transwell. After 4-hour incubation, the concentration of NAP and the NAP derivatives in the upper and lower layers was measured and analyzed in comparison with the initial concentration (500 μM) by reverse phase HPLC at 210 nm.

| Conc. after 4-hour in HBSS [1] | Conc. after 4-hour in Caco-2 cells (Caco-2 cell) | Conc. at the lover layer (Caco-2 cell monolayer) | Compound |
| --- | --- | --- | --- |
| 97.76 | 56.02 | – | CCCC(=O)N[C@@H](CC(N)=O)C(=O)N[C@@H](C)C(=O)N1CCC[C@H]1C(=O)N[C@H](C(=O)N[C@@H](CO)C(=O)N[C@H](C(=O)N1CCC[C@H]1C(=O)N[C@@H](CCC(N)=O)C(=O)O)[C@@H](C)CC)C(C)C [BMEC-NAP0101, Butyryl-NAPVSIPQ-OH] |
| 98.36 | 49.86 | – | CCCCC(=O)N[C@@H](CC(N)=O)C(=O)N[C@@H](C)C(=O)N1CCC[C@H]1C(=O)N[C@H](C(=O)N[C@@H](CO)C(=O)N[C@H](C(=O)N1CCC[C@H]1C(=O)N[C@@H](CCC(N)=O)C(=O)O)[C@@H](C)CC)C(C)C [BMEC-NAP0105, C4H9CO-NAPVSIPQ-OH] |
| 100.02 | 52.63 | 0.24 | CC[C@H](C)[C@H](NC(=O)[C@H](CO)NC(=O)[C@@H](NC(=O)[C@@H]1CCCN1C(=O)[C@H](C)NC(=O)[C@H](CC(N)=O)NC(=O)OCC(C)C)C(C)C)C(=O)N1CCC[C@H]1C(=O)N[C@@H](CCC(N)=O)C(=O)O [BMEC-NAP0401, iBu-OCO-NAPVSIPQ-OH] |
| 99.66 | 17.11 | – | CCCCCCCCOC(=O)N[C@@H](CC(N)=O)C(=O)N[C@@H](C)C(=O)N1CCC[C@H]1C(=O)N[C@H](C(=O)N[C@@H](CO)C(=O)N[C@H](C(=O)N1CCC[C@H]1C(=O)N[C@@H](CCC(N)=O)C(=O)O)[C@@H](C)CC)C(C)C [BMEC-NAP0405, nOct-OCO-NAPVSIPQ-OH] |
| 130.04 | 97.75 | – | CCCCCCCCCCCCOC(=O)N[C@@H](CC(N)=O)C(=O)N[C@@H](C)C(=O)N1CCC[C@H]1C(=O)N[C@H](C(=O)N[C@@H](CO)C(=O)N[C@H](C(=O)N1CCC[C@H]1C(=O)N[C@@H](CCC(N)=O)C(=O)O)[C@@H](C)CC)C(C)C [BMEC-NAP0406, nDod-OCO-NAPVSIPQ-OH] |
| 100.17 | 87.00 | 0.76 | CC[C@H](C)[C@H](NC(=O)[C@H](CO)NC(=O)[C@@H](NC(=O)[C@@H]1CCCN1C(=O)[C@H](C)NC(=O)[C@H](CC(N)=O)NC(=O)OCC(C)C)C(C)C)C(=O)N1CCC[C@H]1C(=O)N[C@@H](CCC(N)=O)C(N)=O [BMEC-NAP0501, iBu-OCO-NAPVSIPQ-NH2] |
| – | 82.37 | 1.39 | CCCCC(CC)COC(=O)N[C@@H](CC(N)=O)C(=O)N[C@@H](C)C(=O)N1CCC[C@H]1C(=O)N[C@H](C(=O)N[C@@H](CO)C(=O)N[C@H](C(=O)N1CCC[C@H]1C(=O)N[C@@H](CCC(N)=O)C(N)=O)[C@@H](C)CC)C(C)C (stereo partly shown) [BMEC-NAP0502, iOct-OCO-NAPVSIPQ-NH2] |
| 95.73 | 88.79 | – | CC[C@H](C)[C@H](NC(=O)[C@H](CO)NC(=O)[C@@H](NC(=O)[C@@H]1CCCN1C(=O)[C@H](C)NC(=O)[C@H](CC(N)=O)NC(=O)c1ccc(-c2ccccc2)cc1)C(C)C)C(=O)N1CCC[C@H]1C(=O)N[C@@H](CCC(N)=O)C(=O)O [BMEC-NAP0703, 4-Phenylbenzoyl-NAPVSIPQ-OH] |
| 100.00 | 76.24 | – | CC[C@H](C)[C@H](NC(=O)[C@H](CO)NC(=O)[C@@H](NC(=O)[C@@H]1CCCN1C(=O)[C@H](C)NC(=O)[C@H](CC(N)=O)NC(=O)OCC1c2ccccc2-c2ccccc21)C(C)C)C(=O)N1CCC[C@H]1C(=O)N[C@@H](CCC(N)=O)C(N)=O [BMEC-NAP0806, Fmoc-NAPVSIPQ-NH2] |
| – | 81.63 | 0.77 | CC[C@H](C)[C@H](NC(=O)[C@H](CO)NC(=O)[C@@H](NC(=O)[C@@H]1CCCN1C(=O)[C@H](C)NC(=O)[C@H](CC(N)=O)NC(=O)c1ccc2c(c1)C(=O)OC21c2ccc(O)cc2Oc2cc(O)ccc21)C(C)C)C(=O)N1CCC[C@H]1C(=O)N[C@@H](CCC(N)=O)C(=O)O [BMEC-NAP9901, 5(6)FAM-NAPVSIPQ-OH] |
| 98.80 | 94.19 | – | CC[C@H](C)[C@H](NC(=O)[C@H](COP(=O)(O)O)NC(=O)[C@@H](NC(=O)[C@@H]1CCCN1C(=O)[C@H](C)NC(=O)[C@@H](N)CC(N)=O)C(C)C)C(=O)N1CCC[C@H]1C(=O)N[C@@H](CCC(N)=O)C(=O)O [BMEC-NAP9902, NH2-NAPVS(OPO3H2)IPQ-OH] |
| 103.83 | 23.89 | – | H-NAPISIPQ-OH [BMEC-NAP0604, H-NAPISIPQ-OH] |
| – | – | 0.07 | H-NAPVSIPAQ-OH [BMEC-NAP0601, H-NAPVSIPAQ-OH] |
| 99.42 | 11.54 | – | H-NAPVSLPQ-OH [BMEC-NAP0606, H-NAPVSLPQ-OH] |
| 104.94 | 21.81 | – | H-QAPVSIPQ-OH [BMEC-NAP0602, H-QAPVSIPQ-OH] |

Second part, the compound before the results:

| Compound | Conc. after 4-hour in HBSS [1] | Conc. after 4-hour in Caco-2 cells (Caco-2 cell) | Conc. at the lover layer (Caco-2 cell monolayer) |
| --- | --- | --- | --- |
| CCCCCCC(=O)N[C@@H](CC(N)=O)C(=O)N[C@@H](C)C(=O)N1CCC[C@H]1C(=O)N[C@H](C(=O)N[C@@H](CO)C(=O)N[C@H](C(=O)N1CCC[C@H]1C(=O)N[C@@H](CCC(N)=O)C(=O)O)[C@@H](C)CC)C(C)C [BMEC-NAP0106, C6H13CO-NAPVSIPQ-OH] | 102.05 | 26.74 | – |
| CCCCCCCCC(=O)N[C@@H](CC(N)=O)C(=O)N[C@@H](C)C(=O)N1CCC[C@H]1C(=O)N[C@H](C(=O)N[C@@H](CO)C(=O)N[C@H](C(=O)N1CCC[C@H]1C(=O)N[C@@H](CCC(N)=O)C(=O)O)[C@@H](C)CC)C(C)C [BMEC-NAP0107, C8H17CO-NAPVSIPQ-OH] | 98.74 | 24.21 | – |
| CCCC(=O)N[C@@H](CC(N)=O)C(=O)N[C@@H](C)C(=O)N1CCC[C@H]1C(=O)N[C@H](C(=O)N[C@@H](CO)C(=O)N[C@H](C(=O)N1CCC[C@H]1C(=O)N[C@@H](CCC(N)=O)C(N)=O)[C@@H](C)CC)C(C)C [BMEC-NAP0201, Butyryl-NAPVSIPQ-NH2] | 100.39 | 94.18 | 0.12 |
| CC[C@H](C)[C@@H]1NC(=O)[C@H](CO)NC(=O)[C@H](C(C)C)NC(=O)[C@@H]2CCCN2C(=O)[C@H](C)NC(=O)[C@H](CC(N)=O)NC(=O)[C@H](CCC(N)=O)NC(=O)[C@@H]2CCCN2C1=O [BMEC-NAP0301, Cyclo-(NAPVSIPQ)] | 100.72 | 94.72 | 0.35 |
| CC[C@H](C)[C@@H]1NC(=O)[C@H](CO)NC(=O)[C@H](C(C)C)NC(=O)[C@@H]2CCCN2C(=O)[C@H](C)NC(=O)[C@H](CC(N)=O)NC(=O)[C@@H](N)CSSC[C@@H](C(=O)O)NC(=O)[C@H](CCC(N)=O)NC(=O)[C@@H]2CCCN2C1=O [BMEC-NAP0302] (H-CNAPVSIPQC-OH; disulfide 1-10; N-terminus and C-terminus assumed) | – | 81.33 | 1.28 |
| CCCCC(CC)COC(=O)N[C@@H](CC(N)=O)C(=O)N[C@@H](C)C(=O)N1CCC[C@H]1C(=O)N[C@H](C(=O)N[C@@H](CO)C(=O)N[C@H](C(=O)N1CCC[C@H]1C(=O)N[C@@H](CCC(N)=O)C(=O)O)[C@@H](C)CC)C(C)C (stereo partly shown) [BMEC-NAP0402, iOct-OCO-NAPVSIPQ-OH] | – | 18.92 | 2.02 |
| CCCCOC(=O)N[C@@H](CC(N)=O)C(=O)N[C@@H](C)C(=O)N1CCC[C@H]1C(=O)N[C@H](C(=O)N[C@@H](CO)C(=O)N[C@H](C(=O)N1CCC[C@H]1C(=O)N[C@@H](CCC(N)=O)C(=O)O)[C@@H](C)CC)C(C)C [BMEC-NAP0403, nBu-OCO-NAPVSIPQ-OH] | 98.49 | 29.05 | – |
| CCCCCCOC(=O)N[C@@H](CC(N)=O)C(=O)N[C@@H](C)C(=O)N1CCC[C@H]1C(=O)N[C@H](C(=O)N[C@@H](CO)C(=O)N[C@H](C(=O)N1CCC[C@H]1C(=O)N[C@@H](CCC(N)=O)C(=O)O)[C@@H](C)CC)C(C)C [BMEC-NAP0404, nHex-OCO-NAPVSIPQ-OH] | 99.16 | 29.87 | 2.00 |
| Adipyl-NAPVSIPQ-OH [BMEC-NAP0102] | 99.95 | 60.72 | – |
| H-NAPISIPAN-OH [BMEC-NAP0608, H-NAPISIPAN-OH] | 110.89 | 30.58 | – |
| H-NAPVSVPQ-OH [BMEC-NAP0605, H-NAPVSVPQ-OH] | 104.25 | 27.76 | – |
| H-QAPVSVPAQ-OH [BMEC-NAP0607, H-QAPVSVPAQ-OH] | 97.33 | 16.54 | – |
